The values that follow come from patent US20250228239A1, “MOLECULES HAVING PESTICIDAL UTILITY, AND INTERMEDIATES, COMPOSITIONS, AND PROCESSES, RELATED THERETO” (priority 2024, published 2025).

Molecules are shown by their SMILES. Where two headings read alike, the source gives them in different places.

In experiment [1] the test system is Beet Armyworm (Spodoptera exigua, LAPHEG). Put plainly: Bioassays on Beet Armyworm (BAW), 128-well diet tray assay. Format: in vivo. To be noted: Spodoptera exigua. In a few lines: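 Percent larval mortality, averaged across eight wells, scored after five to seven days at 25° C. under 14:10 light-dark. Each well held one to five second instars feeding on diet dosed at 50 μg/cm^2 with compound from 90:10 acetone-water, solvent dried off.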

The subject of experiment [2] is Cabbage Looper (Trichoplusia ni, TRIPNI). As to the kind of experiment: Bioassays on Cabbage Looper (CL), 128-well diet tray assay. It counts as in vivo. The conditions noted are these: Trichoplusia ni. The gist of the method: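 Second-instar larvae (1–5 per well) placed on artificial diet surface-treated with 50 μg/cm^2 test molecule applied in 90:10 acetone-water and dried. Held at 25° C., 14:10 light-dark, for five to seven days. Percent mortality scored per well and averaged over eight wells.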

Setting [3] is: Beet Armyworm, rating class, read-out: BAW.
Setting [4] is: Cabbage Looper, rating class, read-out: CL.
Setting [5] is: Beet Armyworm, Table ABC / ABC-DP rating, read-out: BAW rating.
[6] abbreviates: Cabbage Looper, Table ABC / ABC-DP rating, read-out: CL rating.

On to `O=C(Nc1ccc(F)c(NC(=O)C(F)(F)C(F)F)c1F)c1cc(NC(=O)[C@H]2[C@H](c3ccc(F)c(Br)c3)C2(Cl)Cl)ccc1Cl` [F1715, 5-((1R,3R)-3-(3-Bromo-4-fluorophenyl)-2,2-dichlorocyclopropane-1-carboxamido)-2-chloro-N-(2,4-difluoro-3-(2,2,3,3-tetrafluoropropanamido)phenyl)benzamide], for which the pest or weed control at 50 µg/cm2 in experiment [1] (setting [3]) and in experiment [2] (setting [4]) was 50 to 100% in each case.

`Nc1cc(NC(=O)c2cc(NC(=O)[C@H]3[C@H](c4cc(Cl)c(Cl)c(Cl)c4)C3(Cl)Cl)cc(F)c2Cl)c(F)cc1F` [F1397, N-(5-Amino-2,4-difluorophenyl)-2-chloro-5-((1R,3R)-2,2-dichloro-3-(3,4,5-trichlorophenyl)cyclopropane-1-carboxamido)-3-fluorobenzamide]: the pest or weed control at 50 µg/cm2 in experiment [1] (setting [3]) and in experiment [2] (setting [4]) was 50 to 100% in each case.

By mortality is commonly meant the percentage killed. For the compound `O=C(NNCc1ccc(F)cc1)c1cc(NC(=O)[C@H]2[C@H](c3cc(Cl)cc(Cl)c3)C2(Cl)Cl)ccc1Cl` (relative stereo) [F2570, trans-2,2-dichloro-N-(4-chloro-3-(2-(4-fluorobenzyl)hydrazine-1-carbonyl)phenyl)-3-(3,5-dichlorophenyl)cyclopropane-1-carboxamide], the mortality at 50 µg/cm2 in experiment [1] (168 h, second instar larvae, 50 μg/cm^2 of test molecule on artificial diet, 25° C., five to seven days, average of eight wells, read-out: BAW % Control (or Mortality) rating) was in the range of 50 to 100%; in experiment [2] (168 h, second instar larvae, 50 μg/cm^2 of test molecule on artificial diet, 25° C., five to seven days, average of eight wells, read-out: CL % Control (or Mortality) rating), 50 to 100%. Further, the pest or weed control at 50 µg/cm2 in experiment [1] (setting [5]) and in experiment [2] (setting [6]) was 50 to 100% in each case.

On to `O=C(NNC(=O)C(C(F)(F)F)C(F)(F)F)c1cc(NC(=O)[C@H]2[C@H](c3cc(Cl)cc(Cl)c3)C2(Cl)Cl)ccc1Cl` (relative stereo) [F2532, trans-2,2-Dichloro-N-(4-chloro-3-(2-(3,3,3-trifluoro-2-(trifluoromethyl)propanoyl)hydrazine-1-carbonyl)phenyl)-3-(3,5-dichlorophenyl)cyclopropane-1-carboxamide], for which the pest or weed control at 50 µg/cm2 in experiment [1] (setting [5]) and in experiment [2] (setting [6]) was 50 to 100% in each case.

As for `O=C(Nc1ccc(F)c(NS(=O)(=O)CCC(F)(F)F)c1F)c1cc(NC(=O)[C@H]2[C@H](c3ccc(F)c(C(F)(F)F)c3)C2(Cl)Cl)ccc1Cl` [F1350, 2-Chloro-5-((1R,3R)-2,2-dichloro-3-(4-fluoro-3-(trifluoromethyl)phenyl)cyclopropane-1-carboxamido)-N-(2,4-difluoro-3-((3,3,3-trifluoropropyl)sulfonamido)phenyl)benzamide], the pest or weed control at 50 µg/cm2 in experiment [1] (Table ABC: Biological Results, species BAW, read-out: BAW) was 50 to 100%; in experiment [2] (Table ABC: Biological Results, species CL, read-out: CL) it was 50 to 100%.

On to `C#CCN(C(=O)COC(F)(F)F)c1c(F)ccc(NC(=O)c2cc(NC(=O)[C@H]3[C@H](c4ccc(F)c(C(F)(F)F)c4)C3(Cl)Cl)ccc2Cl)c1F` [F1811, 2-Chloro-5-((1R,3R)-2,2-dichloro-3-(4-fluoro-3-(trifluoromethyl)phenyl)cyclopropane-1-carboxamido)-N-(2,4-difluoro-3-(N-(prop-2-yn-1-yl)-2-(trifluoromethoxy)acetamido)phenyl)benzamide], for which the pest or weed control at 50 µg/cm2 in experiment [1] (setting [5]) and in experiment [2] (setting [6]) was 50 to 100% each time.

For the compound `CCOC(=O)Nc1c(F)ccc(NC(=O)c2cc(NC(=O)[C@H]3[C@H](c4ccc(Cl)c(Cl)c4)C3(Cl)Cl)ccc2Cl)c1F` [F1476, Ethyl (3-(2-chloro-5-((1R,3R)-2,2-dichloro-3-(3,4-dichlorophenyl)cyclopropane-1-carboxamido)benzamido)-2,6-difluorophenyl)carbamate], the pest or weed control at 50 µg/cm2 in experiment [1] (setting [3]) and in experiment [2] (setting [4]) was 50 to 100% in each case.

Turning to `O=C(CCl)Nc1c(F)ccc(NC(=O)c2cc(NC(=O)[C@H]3[C@H](c4ccc(F)c(C(F)(F)F)c4)C3(Cl)Cl)ccc2Cl)c1F` [F1726, 2-Chloro-N-(3-(2-chloroacetamido)-2,4-difluorophenyl)-5-((1R,3R)-2,2-dichloro-3-(4-fluoro-3-(trifluoromethyl)phenyl)cyclopropane-1-carboxamido)benzamide], the pest or weed control at 50 µg/cm2 in experiment [1] (setting [3]) and in experiment [2] (setting [4]) was 50 to 100% in each case.
